Common to all, as to format: functional, cell-based
In test [1] the target is T1, Taste receptor type 2 member 10 (Homo sapiens) (UniProt Q9NYW0).
T1 sequence (whole entry): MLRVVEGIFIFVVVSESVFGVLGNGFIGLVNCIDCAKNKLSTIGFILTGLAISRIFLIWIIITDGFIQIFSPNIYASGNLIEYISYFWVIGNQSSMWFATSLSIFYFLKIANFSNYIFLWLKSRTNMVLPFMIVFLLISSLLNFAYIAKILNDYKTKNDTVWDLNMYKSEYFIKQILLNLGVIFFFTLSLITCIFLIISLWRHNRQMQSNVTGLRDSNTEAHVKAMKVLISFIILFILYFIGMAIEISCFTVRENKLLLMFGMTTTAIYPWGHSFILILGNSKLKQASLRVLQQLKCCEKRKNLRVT
The experiment in a line: Competitive-antagonist activity at recombinant human N-terminal rat ST3 receptor-fused TAS2R10 expressed in HEK293T cells co-expressing Galpha16gust44 assessed as inhibition of strychnine-induced increase in intracellular calcium level by measuring maximum signal amplitude at 100 uM by FLIPR assay (reference value: 0.42 +/- 0.09 a.u.).

Test [2] has as its target T2, Taste receptor type 2 member 5 (Homo sapiens) (UniProt Q9NYW4).
T2 sequence (whole entry): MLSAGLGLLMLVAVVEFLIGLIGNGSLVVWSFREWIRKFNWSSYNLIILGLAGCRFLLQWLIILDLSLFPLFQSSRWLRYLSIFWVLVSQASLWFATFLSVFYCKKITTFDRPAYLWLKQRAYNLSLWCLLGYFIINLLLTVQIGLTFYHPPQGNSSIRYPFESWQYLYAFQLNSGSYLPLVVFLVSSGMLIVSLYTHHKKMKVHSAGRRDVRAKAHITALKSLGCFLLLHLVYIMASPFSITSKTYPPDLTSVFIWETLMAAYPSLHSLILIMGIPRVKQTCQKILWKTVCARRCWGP
The experiment in a line: Potentiation of denatonium saccharide-induced agonist activity at recombinant human N-terminal rat ST3 receptor-fused TAS2R5 expressed in HEK293T cells co-expressing Galpha16gust44 assessed as increase in intracellular calcium level at 100 uM by FLIPR assay.

The target in test [3] is T3, Taste receptor type 2 member 13 (Homo sapiens) (UniProt Q9NYV9).
T3 sequence (whole entry): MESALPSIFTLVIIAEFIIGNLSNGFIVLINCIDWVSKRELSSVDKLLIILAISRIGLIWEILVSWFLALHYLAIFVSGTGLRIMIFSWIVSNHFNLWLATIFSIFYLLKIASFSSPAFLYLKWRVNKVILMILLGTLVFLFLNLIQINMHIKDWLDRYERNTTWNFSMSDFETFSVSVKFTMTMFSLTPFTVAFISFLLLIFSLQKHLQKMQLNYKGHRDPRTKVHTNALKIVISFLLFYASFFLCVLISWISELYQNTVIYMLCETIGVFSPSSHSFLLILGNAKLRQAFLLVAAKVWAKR
The experiment in a line: Agonist activity at recombinant human N-terminal rat ST3 receptor-fused TAS2R13 expressed in HEK293T cells co-expressing Galpha16gust44 assessed as increase in intracellular calcium level at 100 uM by FLIPR assay.

Test [4] addresses T4, Taste receptor type 2 member 43 (Homo sapiens) (UniProt P59537).
T4 sequence (whole entry): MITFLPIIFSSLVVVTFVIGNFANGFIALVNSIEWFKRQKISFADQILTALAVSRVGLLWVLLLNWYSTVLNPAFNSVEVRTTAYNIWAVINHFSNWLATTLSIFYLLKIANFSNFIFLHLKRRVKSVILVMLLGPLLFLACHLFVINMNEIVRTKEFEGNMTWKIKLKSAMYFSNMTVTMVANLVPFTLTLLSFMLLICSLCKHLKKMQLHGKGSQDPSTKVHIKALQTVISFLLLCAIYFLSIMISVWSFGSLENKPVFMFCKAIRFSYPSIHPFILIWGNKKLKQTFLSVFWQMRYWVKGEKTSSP
Kind of test: Agonist activity at recombinant human N-terminal rat ST3 receptor-fused TAS2R43 expressed in HEK293T cells co-expressing Galpha16gust44 assessed as increase in intracellular calcium level at 100 uM by FLIPR assay.

For test [5], the target named is Taste receptor type 2 member 42 (Homo sapiens) (UniProt Q7RTR8). The experiment in a line: Agonist activity at recombinant human N-terminal rat ST3 receptor-fused TAS2R42 expressed in HEK293T cells co-expressing Galpha16gust44 assessed as increase in intracellular calcium level at 100 uM by FLIPR assay.
Chain of Taste receptor type 2 member 42 (Homo sapiens) (Q7RTR8 whole entry, the tested form may be a part): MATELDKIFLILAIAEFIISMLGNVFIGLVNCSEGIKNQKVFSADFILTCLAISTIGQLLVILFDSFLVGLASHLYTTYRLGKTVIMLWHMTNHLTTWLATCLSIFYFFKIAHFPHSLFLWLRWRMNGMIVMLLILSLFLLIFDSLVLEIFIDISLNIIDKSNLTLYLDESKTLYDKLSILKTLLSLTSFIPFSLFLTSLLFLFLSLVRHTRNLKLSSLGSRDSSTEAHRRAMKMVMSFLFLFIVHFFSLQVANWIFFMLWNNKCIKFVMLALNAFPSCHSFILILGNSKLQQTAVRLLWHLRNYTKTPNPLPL
Test [6] concerns the target T5, Taste receptor type 2 member 8 (Homo sapiens) (UniProt Q9NYW2).
T5 sequence (whole entry): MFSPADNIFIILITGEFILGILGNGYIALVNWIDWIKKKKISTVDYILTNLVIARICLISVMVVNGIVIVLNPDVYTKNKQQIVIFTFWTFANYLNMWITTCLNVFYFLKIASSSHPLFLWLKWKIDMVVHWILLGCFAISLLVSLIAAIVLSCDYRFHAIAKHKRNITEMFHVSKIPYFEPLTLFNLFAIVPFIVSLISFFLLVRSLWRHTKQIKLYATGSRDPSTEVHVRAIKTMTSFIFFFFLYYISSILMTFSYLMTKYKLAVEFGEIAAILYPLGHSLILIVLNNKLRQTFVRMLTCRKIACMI
The experiment in a line: Agonist activity at recombinant human N-terminal rat ST3 receptor-fused TAS2R8 expressed in HEK293T cells co-expressing Galpha16gust44 assessed as increase in intracellular calcium level at 100 uM by FLIPR assay.

Test [7] deals with Taste receptor type 2 member 41 (Homo sapiens) (UniProt P59536). Kind of test: Agonist activity at recombinant human N-terminal rat ST3 receptor-fused TAS2R41 expressed in HEK293T cells co-expressing Galpha16gust44 assessed as increase in intracellular calcium level at 100 uM by FLIPR assay.
Chain of Taste receptor type 2 member 41 (Homo sapiens) (P59536 whole entry, the tested form may be a part): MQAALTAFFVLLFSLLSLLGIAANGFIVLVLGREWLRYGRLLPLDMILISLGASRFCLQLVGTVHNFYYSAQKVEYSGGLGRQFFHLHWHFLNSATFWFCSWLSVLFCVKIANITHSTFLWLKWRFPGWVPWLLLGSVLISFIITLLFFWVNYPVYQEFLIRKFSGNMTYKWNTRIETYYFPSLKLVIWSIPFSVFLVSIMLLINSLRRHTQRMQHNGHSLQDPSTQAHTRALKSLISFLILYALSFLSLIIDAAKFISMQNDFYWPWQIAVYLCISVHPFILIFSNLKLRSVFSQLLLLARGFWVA
Test [8] has as its target T6, Taste receptor type 2 member 9 (Homo sapiens) (UniProt Q9NYW1).
T6 sequence (whole entry): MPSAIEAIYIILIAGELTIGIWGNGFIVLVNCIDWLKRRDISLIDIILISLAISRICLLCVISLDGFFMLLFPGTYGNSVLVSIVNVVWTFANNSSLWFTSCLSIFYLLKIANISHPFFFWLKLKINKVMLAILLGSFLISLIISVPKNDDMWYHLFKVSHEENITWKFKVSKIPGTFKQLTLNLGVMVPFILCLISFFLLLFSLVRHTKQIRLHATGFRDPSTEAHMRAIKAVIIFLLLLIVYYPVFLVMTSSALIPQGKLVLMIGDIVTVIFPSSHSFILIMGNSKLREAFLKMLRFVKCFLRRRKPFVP
The experiment in a line: Agonist activity at recombinant human N-terminal rat ST3 receptor-fused TAS2R9 expressed in HEK293T cells co-expressing Galpha16gust44 assessed as increase in intracellular calcium level at 100 uM by FLIPR assay.

In test [9] the target is T1, Taste receptor type 2 member 10 (Homo sapiens). Kind of test: Competitive-antagonist activity at recombinant human N-terminal rat ST3 receptor-fused TAS2R10 expressed in HEK293T cells co-expressing Galpha16gust44 assessed as inhibition of strychnine-induced increase in intracellular calcium level by measuring maximum signal amplitude at 10 uM by FLIPR assay (reference value: 0.42 +/- 0.09 a.u.).

Test [10] concerns the target T2, Taste receptor type 2 member 5 (Homo sapiens). Kind of test: Antagonist activity at recombinant human N-terminal rat ST3 receptor-fused TAS2R5 expressed in HEK293T cells co-expressing Galpha16gust44 assessed as inhibition of denatonium saccharide-induced intracellular calcium level at 100 uM by FLIPR assay.

Calls of active or inactive are those of the source. The rule behind the calls is not given here.

For `C/C1=C\C[C@H](O)/C(C)=C/[C@H]2OC(=O)[C@@H](C)[C@@H]2CC1`, the figures for the Activity in [1] and in test [9] were 0.34 a.u and 0.4 a.u, respectively. Moreover, the result in [2] and in test [6] was Active. The outcome in [3], in test [4], in test [5], in test [7] and in test [8] was inactive.

In the case of `C/C1=C\C[C@H](O)[C@@H](C)C[C@H]2OC(=O)[C@@H](C)[C@@H]2CC1`, the inhibition entry in test [10] is “inactive”.

The values above are taken from ChEMBL document CHEMBL4418912, “Methods of identifying antagonists of the hTAS2R46 bitter taste receptor” (2014).
